Reference: patent US20200276181A1, “THIENOISOQUINOLINES AND THEIR DERIVATIVES FOR TARGETING TUBULIN, CH-TOG, AURORA A KINASE, TPX2, CDK5RAP2 AND/OR ASPM” (VALORBEC, SEC, priority 2017, published 2020)

What was measured:
[1] = tested on: HeLa cells with lower levels of endogenous MCAK (MCAK RNAi); test: Spindle phenotypes with MCAK RNAi; format: cell-based, human; conditions: 300 nM C75 or 30 nM colchicine
Text: FIG. 8B) is a bar graph showing the proportion of spindle phenotypes in HeLa cells treated as in 8A).
Since this is unique to C75, and ch-TOG RNAi was previously shown to be suppressed (partially) by MCAK RNAi, supporting C75's role in targeting ch-TOG or a component of the pathway.

[2] = tested on: HFF1 cells; test: Percentage of mitotic cells, paclitaxel +/- C75; format: cell-based; conditions: 200 nM C75 + paclitaxel
Experimental: FIG. 3A) is a line graph showing cytotoxicity of HeLa cells after treatment with varying concentrations of C75+/−a subthreshold dose of paclitaxel (Taxol™; 3 nM). The IC50 is shown by the dotted line. Bars show standard deviation. FIG. 3B) is a line graph showing the percentage of mitotic HeLa or HFF1 cells treated with a range of paclitaxel concentrations+/−C75 as indicated. The bars indicate standard deviation. FIG. 3C) is a series of bar graphs showing the proportion of HCT 116 cells with bipolar aligned (grey), bipolar misaligned (dark grey), multipolar/fragmented (light grey, top portion of each bar) or monopolar (black) spindles 7 hours after treatment with control (DMSO), varying concentrations of paclitaxel or C75, or both as indicated (n=691; N=3). The bars show standard deviation. The combination treatments were compared to paclitaxel and C75 on their own by calculating ratios varying from the predicted ratio, and found to synergize at 100 and 200 nM. FIG. 3D) is bar graph showing the average distance between centrosome fragments in HCT116 cells after treatments as shown. While centrosome fragments moved closer together with increased concentrations of paclitaxel, they moved further apart with increased concentrations of C75 (n=105; N=3). […]

[3] = tested on: HeLa spheroids; test: Multicellular tumour spheroids; format: cell-based, human
Experimental: (§1) FIGS. 5A, 5B, 5C, 5D, 5E, 5F, 5G, 5H, 5I, 5J, 5K, 5L and 5M show how C75 disrupts or reduces the growth of HeLa, HCT116 and A549 spheroids. FIG. 5A) images show HeLa spheroids over time (3 days) before and after treatment with control (1 μM C87; n=10), 250 nM (n=6) or 500 nM (n=10) of C75. The scale bar is 100 μm. FIG. 5B) is a series images of HeLa spheroids after three days of treatment with control (500 nM C87) or 500 nM C75. The spheroids were stained for fluorescein diacetate (to detect live cells) and propidium iodide (to detect dead cells). […] The scale bar is 100 μm. FIG. 5C) is a line graph showing the change in spheroid area (μm^2) for each day and treatment as indicated. Bars show standard deviation and the asterisks are p<0.05 as determined by the student's t test. FIG. 5D) images show HeLa spheroids over 3 days before and after treatment with empty nanoparticles (control; n=3) or 250 nM of nanoparticle-encapsulated C75 (n=3). The scale bar is 100 μm. […] Bars show standard deviation and the asterisks are p<0.05 as determined by the student's t test. FIG. 5F) is a series of images of HCT116 spheroids treated with control (1 μM C87; n=10), 500 nM C75 (n=10) and 1 μM C75 (n=10). […] Bars show standard deviation and the asterisks are p<0.05 as determined by the student's t test. […] Bars show standard deviation and the asterisks are p<0.05 as determined by the student's t test. […]

[4] = tested on: A549 spheroids; test: Multicellular tumour spheroids; format: cell-based, human
Experimental: as §1

[5] = tested on: HeLa cells (GFP:tubulin, SiR-tubulin or GFP-tagged ch-TOG); test: Live imaging of spindles; format: cell-based, human
Text: Bars show standard deviation. […] The bars indicate standard deviation. […] Bars show standard deviation. […] Bars show standard deviation. […] The scale bar for all cells is 10 μm.

## COc1ccc(S(=O)(=O)N2Cc3ccccc3-c3sc(Br)cc32)cc1 [Compound C75]
[1]
  suppression of fragmented spindle phenotype by MCAK RNAi: partially suppressed
[2]
  effect on non-cancerous cells treated with paclitaxel: protective effect
[3]
  effect on spheroids: disrupt
[4]
  effect on spheroids: regress the growth
[5]; 100-300 nM
  time until spindle poles collapse together in metaphase cells: 1 to 2 min
[5]; HeLa live imaging
  time after exposure until centrosomes fragmented or declustered and microtubules collapsed: 4 to 6 min
  time after washout until microtubule polymers grew back: 20 to 30 min
[5]; HeLa live imaging, drugs not washed out
  microtubule polymers without washout: microtubule polymers grow back to form multipolar spindles
